Patent publication US11649222B2, “Compounds” (UNIVERSITETET I OSLO, priority 2016, dated 2023)
Values joined by “and” are separate entries in the source; they are usually repeats but may differ in a detail not shown here. Identical values can stand only once.

What was measured:
[1] = tested on: C. freundii (NDM); assay: Microbroth dilution MIC of meropenem ± 25 mg/L inhibitor; assay type: cell-based
Procedure: (§1) • Plate bacterial strain(s) on appropriate media: • Gram-negative bacteria with ESBLs or carbapenemases: green agar plates with 100 mg/L ampicillin • Gram-negative bacteria without β-lactamases: green agar plates • Gram-positive bacteria (Staphylococci and Enterococci): blood agar plates • Incubate o.n. at 37° C. Day 2: Prepare the Bacterial Inoculum: • Prepare a 0.5 McFarland suspension of bacteria in 0.85% NaCl. (Should be used within 15 min of preparation). • Dilute the 0.5 McFarland suspension 1:100 into MH broth. Check the inoculum by diluting the prepared bacterial suspension 1:100 (10 μl bacterial suspension+990 μl 0.85% NaCl). Plate 10 μl of the dilution on MH agar plates (×2). Incubate o.n. at 37° C., count the colonies and calculate the final CFU/ml inoculum in the plate by multiplying the average number of colonies with 10000 and divide by 2. The final inoculum should be between 3-7×10^5 CFU/ml. • Add 50 μl of the prepared bacterial suspension to each well in the microtiter plate except negative growth control. Preparation of Compounds/Antibiotics • Calculate the desired concentration-range and volume of the compounds/antibiotics in the assay. […] Dilute the stock solution in MH broth. Make subsequent 2-fold dilutions in MH broth of the desired concentrations if a concentration range is to be tested (remember the extra dilution factor in the assay plate). Always include extra volume for pipetting. Take into consideration stock solutions that are made in buffers that have an effect on bacterial growth (e.g. DMSO).

[2] = tested on: C. freundii (NDM-1); assay: as above; assay type: cell-based
Procedure: as §1

[3] = tested on: E. cloacae (VIM); assay: as above; assay type: cell-based
Procedure: as §1

[4] = tested on: E. coli (VIM-1); assay: as above; assay type: cell-based
Procedure: as §1

[5] = tested on: K. pneumoniae (NDM-1); assay: as above; assay type: cell-based; details: K. pneumoniae NDM-1 (several strains)
Procedure: as §1

[6] = tested on: K. pneumoniae (NDM-7); assay: as above; assay type: cell-based
Procedure: as §1

[7] = tested on: K. pneumoniae (VIM); assay: as above; assay type: cell-based
Procedure: as §1

[8] = tested on: M. morganii (OXA48+ NDM-1); assay: as above; assay type: cell-based
Procedure: as §1

[9] = tested on: P. mirabilis (NDM-1); assay: as above; assay type: cell-based
Procedure: as §1

[10] = tested on: P. stuartii (NDM); assay: as above; assay type: cell-based
Procedure: as §1

[11] = tested on: P. stuartii (NDM-1); assay: as above; assay type: cell-based
Procedure: as §1

[12] = tested on: Klebsiella pneumoniae harboring NDM-1; assay: Time-kill study with meropenem; assay type: cell-based; details: Example 26 + 4 mg/L meropenem
Procedure: Mueller-Hinton broth (MHB) was warmed from fridge temperature cold. […] A sample of Example 26 was dissolved in DMSO.
The 96-well plates were prepared using a multi-channel pipette, adding […] PBS to columns 2-9, or the required number of dilutions needed in the experiment. Each Inoculum was prepared by picking a single colony from the fresh plate that was disperged into 1 mL MHB, the loop was agitated to ensure all the colony comes off the loop. The tube was Vortex mixed, and a 100 μL aliquot was taken from the tube into 9.9 mL of MHB into the media bottle. […] The procedure was repeated for as many samples needed in the study. Aliquots of 5 mL inoculum were transferred to as many media bottles as needed, e.g. 4 mg/L MEM, 4 mg/L MEM+50 μM test substance, 4 mg/L MEM+100 μM test substance. Then […] aliquots were taken from each culture and added to Column 1 on the 96 well plate, e.g. culture 1: 50 μl into A1, […] into B1 etc. for time point 0 h. Then […] MEM was added into each bottle, followed by the required amount of test substance. The bottles were mixed gently to avoid formation of bubbles, and incubated in a secondary container at 37° C. at 180 rpm. Finally, serial dilutions were performed using multi-channel pipette taking 30 μL for column 1, adding to column 2, mixing well, repeating from column 2 to 3 with clean pipette tips.

[13] = tested on: Klebsiella pneumoniae strain 50752501 harbouring NDM-1; assay: In vivo peritonitis infection study in neutropenic mice; parameters: Score at sampling: scale not given here; details: for Blood log CFU/ml mean / Blood log CFU/ml / Score at sampling / Pf log CFU/ml mean / Pf log CFU/ml: sampling T = 5; for Blood log CFU/ml / Score at sampling / Pf log CFU/ml: individual mice; for Pf log CFU/ml mean / Pf log CFU/ml: peritoneal fluid
Procedure: The purpose of this study was to investigate the synergy between a typical example of the present invention and a state of art carbapenem in a clinically relevant multiresistant Gram-negative bacterial strain harboring a metallo-β-lactamase in the treatment of live mice infected with the bacterial strain.
The mice were rendered neutropenic by injecting 0.5 ml cyclophosphamide solution intraperitoneally 4 days (approximately 200 mg/kg) and 1 day (approximately 100 mg/kg) prior to inoculation.
Fresh overnight colonies from a 5% Horse Blood Agar plate were suspended and diluted in sterile saline to approximately and 10^7 CFU/ml. Mice were inoculated intraperitoneally with 0.5 ml of the suspension. Approximately ½ hr prior to inoculation, mice were treated orally with 45 μl neurophen (20 mg ibuprofen/ml corresponding to approximately 30 mg/kg) as a pain relief.
Mice were treated subcutaneously in the neck region with.
Colony counts were determined from blood and peritoneal fluid at 1 and 5 hrs post inoculation. […] The mice were sacrificed immediately after blood sampling and a total of 2 ml sterile saline was injected i.p. and the abdomen gently massaged before it was opened and fluid sampled with a pipette. Each sample was then 10 fold serial diluted in saline and 20-μl spots, ranging from undiluted to a 10^6 dilution, were applied on agar plates in duplicates. […] All agar plates were incubated 18-22 hrs at 35° C. in ambient air.

[14] = Example 26 10 mg/kg s.c. + meropenem 33 mg/kg
[15] = Example 26 10 mg/kg s.c. + vehicle
[16] = Example 26 10 mg/kg s.c. + vehicle, 10 mg/kg
[17] = Example 26 33 mg/kg s.c. + meropenem 33 mg/kg
[18] = Example 26 33 mg/kg s.c. + vehicle
[19] = Example 26 33 mg/kg s.c. + vehicle, 33 mg/kg
[20] = Example 26 100 mg/kg s.c. + meropenem 33 mg/kg
[21] = Example 26 100 mg/kg s.c. + vehicle
[22] = Example 26 100 mg/kg s.c. + vehicle, 100 mg/kg
[23] = combination treatment with Example 26 and meropenem

CN(C[C@H](O)[C@@H](O)[C@H](O)[C@H](O)CO)C(=O)c1ccc(CN(Cc2ccccn2)Cc2ccccn2)nc1 [Example 26, 6-((bis(pyridin-2-ylmethyl)amino)methyl)-N-methyl-N-((2S,3R,4R,5R)-2,3,4,5,6-pentahydroxyhexyl)nicotinamide]
MIC meropenem + 25 mg/L Example 26 [1]: 0.06 µg/mL
MIC meropenem + 25 mg/L Example 26 [2]: 0.06 µg/mL
MIC meropenem + 25 mg/L Example 26 [3]: <0.03 µg/mL
MIC meropenem + 25 mg/L Example 26 [4]: <0.03 µg/mL
MIC meropenem + 25 mg/L Example 26 [5]: 0.125 µg/mL
MIC meropenem + 25 mg/L Example 26 [6]: <0.03 µg/mL
MIC meropenem + 25 mg/L Example 26 [7]: 0.06 µg/mL
MIC meropenem + 25 mg/L Example 26 [8]: 1 µg/mL
MIC meropenem + 25 mg/L Example 26 [9]: 0.125 µg/mL
MIC meropenem + 25 mg/L Example 26 [10]: 0.25 µg/mL
MIC meropenem + 25 mg/L Example 26 [11]: 0.06 µg/mL
time after which CFU drops to below the limit of detection (LOD) ([12]; irrespective of the concentration of Example 26): 5 to 10 h
period CFU stays below LOD ([12]; period of the study): ≥ 30 h
reduction of the CFU levels compared to vehicle treatment in blood and peritoneal fluid ([13]; 10-100 mg/kg Example 26 alone): did not result in reduction of the CFU levels
Blood log CFU/ml mean [13, 14]: 1.61 log CFU/ml
Blood log CFU/ml [13, 14]: 1.90 log CFU/ml and 1.00 log CFU/ml and 1.85 log CFU/ml and 1.70 log CFU/ml
Score at sampling [13, 14]: 2
Blood log CFU/ml mean [13, 15]: 5.88 log CFU/ml
Score at sampling [13, 15]: 2
Blood log CFU/ml [13, 16]: 6.02 log CFU/ml and 5.70 log CFU/ml and 5.90 log CFU/ml and 5.89 log CFU/ml
Blood log CFU/ml mean [13, 17]: 1.26 log CFU/ml
Blood log CFU/ml [13, 17]: 1.78 log CFU/ml (2×) and 1.00 log CFU/ml and 0.50 log CFU/ml
Score at sampling [13, 17]: 1
Blood log CFU/ml mean [13, 18]: 5.89 log CFU/ml
Score at sampling [13, 18]: 1
Blood log CFU/ml [13, 19]: 5.83 log CFU/ml and 5.54 log CFU/ml and 6.78 log CFU/ml and 5.40 log CFU/ml
Blood log CFU/ml mean [13, 20]: 1.18 log CFU/ml
Blood log CFU/ml [13, 20]: 1.30 log CFU/ml and 0.50 log CFU/ml and 1.90 log CFU/ml and 1.00 log CFU/ml
Score at sampling [13, 20]: 1
Blood log CFU/ml mean [13, 21]: 5.84 log CFU/ml
Score at sampling [13, 21]: 1
Blood log CFU/ml [13, 22]: 5.83 log CFU/ml and 6.05 log CFU/ml and 5.48 log CFU/ml and 6.02 log CFU/ml
lower CFU levels compared to vehicle treatment, blood [13, 23]: 3.95-4.38 log10
lower CFU levels compared to vehicle treatment, peritoneal fluid [13, 23]: 3.57-3.66 log10
Pf log CFU/ml mean [13, 14]: 3.83 log CFU/ml
Pf log CFU/ml [13, 14]: 4.18 log CFU/ml and 3.83 log CFU/ml and 3.60 log CFU/ml and 3.72 log CFU/ml
Pf log CFU/ml mean [13, 15]: 7.79 log CFU/ml
Pf log CFU/ml [13, 16]: 7.92 log CFU/ml and 7.68 log CFU/ml and 7.76 log CFU/ml and 7.81 log CFU/ml
Pf log CFU/ml mean [13, 17]: 3.80 log CFU/ml
Pf log CFU/ml [13, 17]: 3.88 log CFU/ml and 3.80 log CFU/ml and 3.68 log CFU/ml and 3.85 log CFU/ml
Pf log CFU/ml mean [13, 18]: 7.60 log CFU/ml
Pf log CFU/ml [13, 19]: 7.68 log CFU/ml and 7.51 log CFU/ml and 7.88 log CFU/ml and 7.35 log CFU/ml
Pf log CFU/ml mean [13, 20]: 3.74 log CFU/ml
Pf log CFU/ml [13, 20]: 3.65 log CFU/ml (2×) and 3.74 log CFU/ml and 3.92 log CFU/ml
Pf log CFU/ml mean [13, 21]: 7.93 log CFU/ml
Pf log CFU/ml [13, 22]: 8.24 log CFU/ml and 7.89 log CFU/ml and 7.63 log CFU/ml and 7.98 log CFU/ml
